The values below come from PubChem BioAssay (NCI).

A word on the TGI: it is the concentration at which net growth stops. The GI50 is the concentration at which growth is held to half of that of the control.

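1) Cells in 96-well plates. 2) Compound, 48 h, 5 concentrations. 3) Linear interpolation between surrounding doses. 4) Unreached endpoint = highest concentration. GI50: concentration for 50% inhibition of growth. TGI denotes the concentration required for complete inhibition of growth.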

Some test systems named below: HS 578T breast; LOX IMVI melanoma; MDA-MB-231 breast; MOLT-4 leukemia; NCI-H23 lung; PC-3 prostate; SF-539 CNS; SN12C renal; SR leukemia; SW-620 colon.
Assay in all cases: DTP human tumour cell line panel, 48 h

As for `O=C1CC(c2cccc(Br)c2)n2cccc21` (stereo not given), the TGI in the assay with HS 578T breast, in the assay with LOX IMVI melanoma, in the assay with MDA-MB-231 breast, in the assay on MOLT-4 leukemia, in the assay with NCI-H23 lung and in the assay on PC-3 prostate was more than 100 µM throughout. Further, the TGI in the assay on SF-539 CNS, in the assay on SN12C renal, in the assay on SR leukemia and in the assay with SW-620 colon was more than 100 µM throughout.

Take `COc1c(O)cc2c(c1O)C(=O)/C(=C/c1ccc(O)cc1)CO2`: the TGI with HS 578T breast is more than 100 µM; with LOX IMVI melanoma it was 53.1 µM; in the assay with MDA-MB-231 breast it was more than 100 µM; in the assay on MOLT-4 leukemia it was more than 100 µM; in the assay on NCI-H23 lung, more than 100 µM; with PC-3 prostate it was more than 100 µM. Also, the total growth inhibition concentration (TGI) in the assay on SF-539 CNS was 48.9 µM; in the assay on SN12C renal it was 55.5 µM; in the assay with SR leukemia, 40.9 µM; with SW-620 colon it was 83.4 µM.

Take `Cc1ccc(NC(=O)CSc2nc(=O)[nH]c3nc[nH]c23)cc1`: the TGI in the assay on HS 578T breast, in the assay with LOX IMVI melanoma, with MDA-MB-231 breast, in the assay on MOLT-4 leukemia, in the assay with NCI-H23 lung and with PC-3 prostate was more than 100 µM each time. The TGI in the assay on SF-539 CNS is 52.8 µM; in the assay on SN12C renal, more than 100 µM; in the assay on SR leukemia, more than 100 µM; in the assay on SW-620 colon, more than 100 µM.

Regarding `Cc1ccc(/C(O)=C/c2nc3ccccc3s/c2=N/CS(=O)(=O)c2ccc(C)cc2)cc1`, the total growth inhibition concentration (TGI) with HS 578T breast, with LOX IMVI melanoma, in the assay with MDA-MB-231 breast, with MOLT-4 leukemia, in the assay with NCI-H23 lung and with PC-3 prostate was more than 10 µM each time. The TGI with SF-539 CNS, in the assay with SN12C renal, in the assay on SR leukemia and with SW-620 colon was more than 10 µM each time.

As for `COc1cc2c(cc1OC)C1(COc3cc(O)c(O)c(O)c3C1=O)C2` (stereo not given), the TGI in the assay on HS 578T breast, in the assay with LOX IMVI melanoma, with MDA-MB-231 breast, with MOLT-4 leukemia, in the assay on NCI-H23 lung and with PC-3 prostate was more than 50 µM throughout. Also, the TGI with SF-539 CNS, in the assay with SN12C renal, in the assay with SR leukemia and in the assay on SW-620 colon was more than 50 µM throughout.

Regarding `Clc1ccc(C2Nc3ccccc3C3=NCCN32)cc1` (stereo not given), the TGI in the assay with HS 578T breast was more than 100 µM; with LOX IMVI melanoma, 36.2 µM; in the assay on MDA-MB-231 breast, more than 100 µM; in the assay on MOLT-4 leukemia, more than 100 µM; in the assay on NCI-H23 lung, 55.4 µM; in the assay on PC-3 prostate, more than 100 µM. Besides, the TGI with SF-539 CNS is 30.6 µM; in the assay on SN12C renal, more than 100 µM; with SR leukemia it was 59.2 µM; in the assay on SW-620 colon, 98.6 µM.

For the compound `CC(=O)N=C1N(/C=C2\C(=O)Oc3ccccc3C2=O)C(=O)/C(=C/c2ccc(NC(C)=O)cc2)N1C`, the TGI in the assay with HS 578T breast, in the assay on LOX IMVI melanoma, with MDA-MB-231 breast, in the assay on MOLT-4 leukemia, in the assay with NCI-H23 lung and in the assay with PC-3 prostate was more than 100 µM each time. Further, the TGI in the assay on SF-539 CNS, in the assay on SN12C renal, in the assay on SR leukemia and with SW-620 colon was more than 100 µM throughout.

For the compound `CCOC(=O)c1sc2[n+](c1C)C(=O)/C(=C/c1ccc([N+](=O)[O-])cc1)S2`, the TGI was 67 µM with HS 578T breast; 61.1 µM in the assay on LOX IMVI melanoma; more than 100 µM with MDA-MB-231 breast; 53.5 µM in the assay on MOLT-4 leukemia; 48.4 µM in the assay with NCI-H23 lung; 57.4 µM with PC-3 prostate. The TGI was 54.7 µM in the assay with SF-539 CNS, more than 100 µM in the assay with SN12C renal, 57.7 µM in the assay with SR leukemia and 73.5 µM in the assay with SW-620 colon.

Turning to `C=C1C(=O)O[C@@H]2C[C@]3(C)CC[C@]4(C)[C@H](CC[C@@H]5[C@@]6(C)CCC(=O)C(C)(C)[C@@H]6CC[C@]54C)[C@H]3[C@H]12`, the TGI in the assay on HS 578T breast was more than 78 µM; in the assay with LOX IMVI melanoma, 29.6 µM; in the assay on MDA-MB-231 breast it was 47.1 µM; with MOLT-4 leukemia, 5.76 µM; in the assay with NCI-H23 lung, 57.3 µM; with PC-3 prostate, 35.4 µM. Further, the TGI worked out at 38.2 µM in the assay on SF-539 CNS, 36.4 µM in the assay on SN12C renal, 36.5 µM in the assay with SR leukemia and 55.4 µM with SW-620 colon.

For the compound `CN(C)CCCn1nc(N)c2nc3cc(Cl)ccc3nc21`, the TGI in the assay with HS 578T breast, with LOX IMVI melanoma, in the assay with MDA-MB-231 breast, in the assay with MOLT-4 leukemia, in the assay on NCI-H23 lung and with PC-3 prostate was more than 100 µM throughout. Also, the TGI in the assay on SF-539 CNS, with SN12C renal, in the assay on SR leukemia and with SW-620 colon was more than 100 µM in each case.

For `O=C(Nc1ccc(-n2ccc3c(NC(=O)c4ccccc4)ncnc32)cc1)Nc1cccc(Cl)c1Cl`, the GI50 with HS 578T breast was 856 nM; in the assay on LOX IMVI melanoma it was 763 nM; in the assay with MDA-MB-231 breast, 1020 nM; in the assay with MOLT-4 leukemia it was 1710 nM; in the assay on NCI-H23 lung, 1640 nM; in the assay on PC-3 prostate, 582 nM. Moreover, the GI50 in the assay with SF-539 CNS was 1120 nM; with SN12C renal, 1080 nM; in the assay on SR leukemia, 659 nM; with SW-620 colon, 998 nM. The concentration for total growth inhibition (TGI) in the assay on HS 578T breast is 2.6 µM; with LOX IMVI melanoma, 2.04 µM; with MDA-MB-231 breast it was 3.05 µM; with MOLT-4 leukemia it was more than 50 µM; with NCI-H23 lung, 11 µM; in the assay with PC-3 prostate, 1.57 µM. Moreover, the TGI is 5.69 µM in the assay on SF-539 CNS, 2.32 µM in the assay with SN12C renal, 2.92 µM with SR leukemia and 2.36 µM in the assay with SW-620 colon.
